Results as given in patent US20050008695A1, “Compositions and methods for delivering a biologically active agent” (Control Delivery Systems, Inc., priority 2003, published 2005).

What was measured:
[1] = Hydrolysis rate (half-life) in buffer, pH 7.4; format: physicochemical
Text: (§1) Hydrolysis Rate (half-life t½)
(§2) Hydrolysis Rate (half life t½)

[2] = Hydrolysis rate (half-life) in human plasma; format: in vitro ADME
Text: as §1, §2

[3] = Lipophilicity compared with constituent drug; format: physicochemical; settings: qualitative comparison
[4] = Aqueous solubility compared with constituent drugs; format: physicochemical; settings: qualitative comparison with the unlinked drugs
[5] = not told
[6] = read-out: Hydrolysis Rate (half-life t½) In Buffer, pH7.4 (converted)
[7] = read-out: Hydrolysis Rate (half-life t½) In Human Plasma
[8] = read-out: Hydrolysis Rate (half life t½) In Human Plasma (converted)

Row | half-life [2, 7] [h] | Lipophilicity relative to constituent drug [3] | Compound | half-life [1, 6] [h] | Aqueous / water solubility relative to constituent drug(s) [4] | half-life [2, 8] [h] | further results
1 | 0.1 | – | O=C(Cc1ccccc1Nc1c(Cl)cccc1Cl)OCc1oc(=O)oc1COC(=O)Cc1ccccc1Nc1c(Cl)cccc1Cl [Diclofenac Dimer] | 25 | – | – | –
2 | 0.167 | more lipophilic than the ionized form | O=C(Cc1ccccc1Nc1c(Cl)cccc1Cl)OCCOCCOCCOCCO [Diclofenac-PEG4] | – | higher water solubility than unionized diclofenac | – | half-life ([1]; read-out: Hydrolysis Rate (half life t½) In Buffer, pH7.4 (converted)): 168 h
3 | – | – | O=C(O)Cc1ccccc1Nc1c(Cl)cccc1Cl.O=C(O)c1cn(C2CC2)c2cc(N3CCNCC3)c(F)cc2c1=O [diclofenac-ciprofloxacin codrug] | – | – | – | Permeation [5]: enhanced permeation
4 | – | – | CC1(C)O[C@@H]2CC3C4C[C@H](F)C5=CC(=O)C=CC5(C)[C@@]4(F)CCC3(C)[C@]2(C(=O)COC(=O)Cc2ccccc2Nc2c(Cl)cccc2Cl)O1 (stereo partly shown) [Diclofenac-Fluocinolone Acetonide] | 15 | lower solubility under aqueous conditions than either of the constituent drugs | 168 | –
5 | – | more lipophilic than ofloxacin alone | CC1COc2c(N3CCN(C)CC3)c(F)cc3c(=O)c(C(=O)OCCOCCOC(=O)Cc4ccccc4Nc4c(Cl)cccc4Cl)cn1c23 (stereo not shown) [Diclofenac-Ofloxacin] | – | – | 6.5 | Hydrolysis Rate (half life t½) In Buffer, pH7.4 ([1]; given in words, no number): days
